Measured values published in the NIST ThermoML archive (doi:10.1016/j.jct.2006.01.012).

Test: xn = mol fraction of the nth substance listed
Conditions: Liquid; for mass density: isochoric method; for viscosity: Capillary tube (Ostwald / Ubbelohde) method

CCCCCCCC [octane] + CCCCCCC
Conditions	mass density [kg/m3]	viscosity [mPa·s]
293.15 K, 100 kPa, x2 = 0.2808	697.8	–
293.15 K, 100 kPa, x2 = 0.5427	693.2	–
293.15 K, 100 kPa, x2 = 0.7906	688.3	–
298.15 K, 100 kPa, x2 = 0.2808	694	–
298.15 K, 100 kPa, x2 = 0.5427	689.2	0.436
298.15 K, 100 kPa, x2 = 0.7906	684.2	–
298.15 K, 5000 kPa, x2 = 0.5427	–	0.461
298.15 K, 10000 kPa, x2 = 0.5427	–	0.487
298.22 K, 100 kPa, x2 = 0.7906	–	0.408
298.22 K, 5000 kPa, x2 = 0.7906	–	0.435
298.22 K, 10000 kPa, x2 = 0.7906	–	0.459
298.39 K, 100 kPa, x2 = 0.2808	–	0.467
298.39 K, 5000 kPa, x2 = 0.2808	–	0.493
298.39 K, 10000 kPa, x2 = 0.2808	–	0.521
299.24 K, 3824 kPa, x2 = 0.5427	691.8	–
299.24 K, 6865 kPa, x2 = 0.5427	694.6	–
299.24 K, 9316 kPa, x2 = 0.5427	696.4	–
303.15 K, 100 kPa, x2 = 0.2808	689.9	–
303.15 K, 100 kPa, x2 = 0.5427	685	–
303.15 K, 100 kPa, x2 = 0.7906	680.1	–
303.39 K, 100 kPa, x2 = 0.5427	–	0.414
303.39 K, 5000 kPa, x2 = 0.5427	–	0.435
303.39 K, 10000 kPa, x2 = 0.5427	–	0.459
303.85 K, 100 kPa, x2 = 0.2808	–	0.441
303.85 K, 5000 kPa, x2 = 0.2808	–	0.465
303.85 K, 10000 kPa, x2 = 0.2808	–	0.492
305.74 K, 100 kPa, x2 = 0.7906	–	0.379
305.74 K, 5000 kPa, x2 = 0.7906	–	0.402
305.74 K, 10000 kPa, x2 = 0.7906	–	0.425
306.18 K, 2942 kPa, x2 = 0.2808	690.3	–
306.18 K, 7021 kPa, x2 = 0.2808	693.8	–
306.18 K, 8826 kPa, x2 = 0.2808	695.3	–
307.62 K, 2608 kPa, x2 = 0.7906	678.6	–
307.62 K, 7178 kPa, x2 = 0.7906	683	–
307.62 K, 9140 kPa, x2 = 0.7906	684.6	–
308.15 K, 100 kPa, x2 = 0.2808	686.1	–
308.15 K, 100 kPa, x2 = 0.5427	680.9	–
308.15 K, 100 kPa, x2 = 0.7906	675.9	–
312.71 K, 100 kPa, x2 = 0.2808	–	0.4
312.71 K, 5000 kPa, x2 = 0.2808	–	0.424
312.71 K, 10000 kPa, x2 = 0.2808	–	0.446
312.74 K, 100 kPa, x2 = 0.5427	–	0.374
312.74 K, 5000 kPa, x2 = 0.5427	–	0.396
312.74 K, 10000 kPa, x2 = 0.5427	–	0.419
312.75 K, 100 kPa, x2 = 0.7906	–	0.352
312.75 K, 5000 kPa, x2 = 0.7906	–	0.373
312.75 K, 10000 kPa, x2 = 0.7906	–	0.395
313.15 K, 100 kPa, x2 = 0.2808	681.6	–
313.15 K, 100 kPa, x2 = 0.5427	676.6	–
313.15 K, 100 kPa, x2 = 0.7906	671.6	–
318.15 K, 100 kPa, x2 = 0.2808	677.4	–
318.15 K, 100 kPa, x2 = 0.5427	672.7	–
318.15 K, 100 kPa, x2 = 0.7906	667.3	–
321.21 K, 100 kPa, x2 = 0.5427	–	0.338
321.21 K, 5000 kPa, x2 = 0.5427	–	0.359
321.21 K, 10000 kPa, x2 = 0.5427	–	0.38
321.71 K, 100 kPa, x2 = 0.2808	–	0.362
321.71 K, 5000 kPa, x2 = 0.2808	–	0.384
321.71 K, 10000 kPa, x2 = 0.2808	–	0.405
323.15 K, 100 kPa, x2 = 0.2808	673.2	–
323.15 K, 100 kPa, x2 = 0.5427	668.5	–
323.15 K, 100 kPa, x2 = 0.7906	663	–
323.82 K, 100 kPa, x2 = 0.7906	–	0.314
323.82 K, 5000 kPa, x2 = 0.7906	–	0.334
323.82 K, 10000 kPa, x2 = 0.7906	–	0.353
331.45 K, 4121 kPa, x2 = 0.7906	658.7	–
331.45 K, 6311 kPa, x2 = 0.7906	662.6	–
331.45 K, 8523 kPa, x2 = 0.7906	665.5	–
331.45 K, 10350 kPa, x2 = 0.7906	667.1	–
331.55 K, 4119 kPa, x2 = 0.5427	665	–
331.55 K, 5944 kPa, x2 = 0.5427	668.1	–
331.55 K, 8203 kPa, x2 = 0.5427	670.9	–
331.55 K, 10100 kPa, x2 = 0.5427	672.6	–
333.15 K, 100 kPa, x2 = 0.2808	664.9	–
333.15 K, 100 kPa, x2 = 0.5427	659.9	–
333.15 K, 100 kPa, x2 = 0.7906	654.4	–
333.54 K, 100 kPa, x2 = 0.2808	–	0.322
333.54 K, 5000 kPa, x2 = 0.2808	–	0.341
333.54 K, 10000 kPa, x2 = 0.2808	–	0.36
333.73 K, 100 kPa, x2 = 0.5427	–	0.3
333.73 K, 5000 kPa, x2 = 0.5427	–	0.319
333.73 K, 10000 kPa, x2 = 0.5427	–	0.338
335.62 K, 100 kPa, x2 = 0.7906	–	0.281
335.62 K, 5000 kPa, x2 = 0.7906	–	0.298
335.62 K, 10000 kPa, x2 = 0.7906	–	0.316
338.15 K, 100 kPa, x2 = 0.2808	661	–
338.15 K, 100 kPa, x2 = 0.5427	655.6	–
338.15 K, 100 kPa, x2 = 0.7906	650.1	–
343.15 K, 100 kPa, x2 = 0.2808	656.8	–
343.15 K, 100 kPa, x2 = 0.5427	651.2	–
343.15 K, 100 kPa, x2 = 0.7906	645.6	–
344.21 K, 100 kPa, x2 = 0.7906	–	0.26
344.21 K, 5000 kPa, x2 = 0.7906	–	0.276
344.21 K, 10000 kPa, x2 = 0.7906	–	0.292
344.39 K, 100 kPa, x2 = 0.2808	–	0.291
344.39 K, 5000 kPa, x2 = 0.2808	–	0.308
344.39 K, 10000 kPa, x2 = 0.2808	–	0.325
344.4 K, 100 kPa, x2 = 0.5427	–	0.273
344.4 K, 5000 kPa, x2 = 0.5427	–	0.29
344.4 K, 10000 kPa, x2 = 0.5427	–	0.307
352.61 K, 2844 kPa, x2 = 0.5427	648	–
352.61 K, 8237 kPa, x2 = 0.5427	654.9	–
352.61 K, 10040 kPa, x2 = 0.5427	657	–
352.62 K, 100 kPa, x2 = 0.5427	–	0.255
352.62 K, 5000 kPa, x2 = 0.5427	–	0.27
352.62 K, 10000 kPa, x2 = 0.5427	–	0.286
353.2 K, 100 kPa, x2 = 0.7906	–	0.239
353.2 K, 5000 kPa, x2 = 0.7906	–	0.255
353.2 K, 10000 kPa, x2 = 0.7906	–	0.27
354.08 K, 100 kPa, x2 = 0.2808	–	0.267
354.08 K, 5000 kPa, x2 = 0.2808	–	0.283
354.08 K, 10000 kPa, x2 = 0.2808	–	0.299
357.15 K, 100 kPa, x2 = 0.2808	644.3	–
357.15 K, 100 kPa, x2 = 0.5427	638.8	–
357.15 K, 100 kPa, x2 = 0.7906	633	–
362.65 K, 4800 kPa, x2 = 0.2808	646.1	–
362.65 K, 6720 kPa, x2 = 0.2808	649	–
362.65 K, 9300 kPa, x2 = 0.2808	652.5	–
363.71 K, 100 kPa, x2 = 0.2808	–	0.245
363.71 K, 5000 kPa, x2 = 0.2808	–	0.261
363.71 K, 10000 kPa, x2 = 0.2808	–	0.276
363.74 K, 100 kPa, x2 = 0.5427	–	0.232
363.74 K, 5000 kPa, x2 = 0.5427	–	0.247
363.74 K, 10000 kPa, x2 = 0.5427	–	0.26
364.62 K, 100 kPa, x2 = 0.7906	–	0.216
364.62 K, 5000 kPa, x2 = 0.7906	–	0.232
364.62 K, 10000 kPa, x2 = 0.7906	–	0.246
365.46 K, 3432 kPa, x2 = 0.7906	631.8	–
365.46 K, 8983 kPa, x2 = 0.7906	639.4	–
365.46 K, 9963 kPa, x2 = 0.7906	640.9	–
